Where “and” joins values, the source holds several entries; their conditions need not be identical. Equal entries are not always repeated. Toxic doses and inconclusive results are not listed.

The subject of the assay is P388 leukemia ip, CD2F1 mice, survival T/C. The assay is described as follows: NCI In Vivo Anticancer Drug Screen. Data for tumor model P388 Leukemia (intraperitoneal) in CD2F1 (CDF1) mice. As to conditions: endpoint: median survival time, higher = longer survival. Summed up:
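Mice carrying the transplanted tumor received test compound or vehicle. Survival was recorded in each group, and the value is the treated-group measurement divided by that of the vehicle-treated control group.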

[1] abbreviates: dose: 12.5 mg/kg/injection, schedule: Q01DX009 (ip), vehicle: saline with Tween-80.
[2] abbreviates: dose: 25.0 mg/kg/injection, schedule: Q01DX009 (ip), vehicle: saline with Tween-80.
Setting [3] is: dose: 50.0 mg/kg/injection, schedule: Q01DX009 (ip), vehicle: saline with Tween-80.
Where [4] appears, read: dose: 50.0 mg/kg/injection, schedule: Q01DX005 (ip), vehicle: saline.
Setting [5] is: dose: 100.0 mg/kg/injection, schedule: Q01DX005 (ip), vehicle: saline.
Where [6] appears, read: dose: 200.0 mg/kg/injection, schedule: Q01DX005 (ip), vehicle: saline.
[7] abbreviates: dose: 100.0 mg/kg/injection, schedule: Q04DX002 (ip), vehicle: saline with Tween-80.
[8] abbreviates: dose: 200.0 mg/kg/injection, schedule: Q04DX002 (ip), vehicle: saline with Tween-80.
Where [9] appears, read: dose: 200.0 mg/kg/injection, schedule: Q01DX005 (ip), vehicle: Klucel (hydroxypropylcellulose) (HPC).
The mark [10] stands for this setting: dose: 100.0 mg/kg/injection, schedule: Q01DX009 (ip), vehicle: saline with Tween-80.
The mark [11] stands for this setting: dose: 200.0 mg/kg/injection, schedule: Q01DX009 (ip), vehicle: saline with Tween-80.
Setting [12] is: dose: 50.0 mg/kg/injection, schedule: Q01DX005 (ip), vehicle: saline with Tween-80.
Where [13] appears, read: dose: 100.0 mg/kg/injection, schedule: Q01DX005 (ip), vehicle: saline with Tween-80.
Where [14] appears, read: dose: 200.0 mg/kg/injection, schedule: Q01DX005 (ip), vehicle: saline with Tween-80.
Where [15] appears, read: dose: 50.0 mg/kg/injection, schedule: Q01DX005 (ip), vehicle: Klucel (hydroxypropylcellulose) (HPC).
[16] abbreviates: dose: 100.0 mg/kg/injection, schedule: Q01DX005 (ip), vehicle: Klucel (hydroxypropylcellulose) (HPC).
The mark [17] stands for this setting: dose: 50.0 mg/kg/injection, schedule: Q04DX002 (ip), vehicle: saline with Tween-80.

Turning to `CCOC(=O)c1cc(OC(C)=O)c2ccc(OC)c(OC)c2c1`, the T/C reads like this: (dose: 6.25 mg/kg/injection, schedule: Q01DX009 (ip), vehicle: distilled water + Tween-80) 101 % of control and 105 % of control and 90 % of control; (dose: 50.0 mg/kg/injection, schedule: Q01DX009 (ip), vehicle: distilled water + Tween-80) 91 % of control and 93 % of control and 97 % of control; (dose: 100.0 mg/kg/injection, schedule: Q01DX009 (ip), vehicle: distilled water + Tween-80) 91 % of control; (dose: 200.0 mg/kg/injection, schedule: Q01DX009 (ip), vehicle: distilled water + Tween-80) 93 % of control.

For `S=c1[nH]c2cc(Cl)ccc2o1`, the T/C was 108 % of control (dose: 6.25 mg/kg/injection, schedule: Q01DX009 (ip), vehicle: saline with Tween-80); 96 % of control under setting [1]; 117 % of control under setting [2]; 105 % of control under setting [3].

`COc1cc2c(cc1O)CCN[C@H]2C`: the T/C is 100 % of control under setting [4], 100 % of control under setting [5] and 108 % of control under setting [6].

With `CC1OC(=S)N(c2cccc3ccccc23)C1=O` (stereo not drawn), the T/C by setting is: (dose: 100.0 mg/kg/injection, schedule: Q01DX001 (ip), vehicle: saline with Tween-80) 93 % of control; (dose: 200.0 mg/kg/injection, schedule: Q01DX001 (ip), vehicle: saline with Tween-80) 90 % of control; (dose: 400.0 mg/kg/injection, schedule: Q01DX001 (ip), vehicle: saline with Tween-80) 94 % of control.

`CCCOCC(=O)O`: the T/C is 106 % of control (dose: 50.0 mg/kg/injection, schedule: Q01DX009 (ip), vehicle: saline); 110 % of control (dose: 100.0 mg/kg/injection, schedule: Q01DX009 (ip), vehicle: saline); 101 % of control (dose: 200.0 mg/kg/injection, schedule: Q01DX009 (ip), vehicle: saline).

Regarding `CCN(CC)C1=NS(=O)(=O)c2ccccc2C(SC)=C1C`, the T/C under setting [7] was 106 % of control; the T/C under setting [8] is 100 % of control; the T/C (dose: 400.0 mg/kg/injection, schedule: Q04DX002 (ip), vehicle: saline with Tween-80) was 100 % of control.

As for `CC1=C/C(O)CC(=O)Cc2nc(co2)C(=O)N2CCC=C2C(=O)OC(C(C)C)C(C)/C=C\C(=O)NC/C=C\1` (stereo not drawn), the T/C is 111 % of control under setting [9]; 114 % of control (dose: 400.0 mg/kg/injection, schedule: Q01DX005 (ip), vehicle: Klucel (hydroxypropylcellulose) (HPC)); 104 % of control and 107 % of control and 115 % of control (dose: 1.0 micrograms/kg/injection, schedule: Q01DX009 (ip), vehicle: Klucel (hydroxypropylcellulose) (HPC)); 111 % of control and 114 % of control and 121 % of control (dose: 2.0 micrograms/kg/injection, schedule: Q01DX009 (ip), vehicle: Klucel (hydroxypropylcellulose) (HPC)); 111 % of control and 112 % of control and 121 % of control (dose: 4.0 micrograms/kg/injection, schedule: Q01DX009 (ip), vehicle: Klucel (hydroxypropylcellulose) (HPC)); 104 % of control and 111 % of control and 123 % of control (dose: 8.0 micrograms/kg/injection, schedule: Q01DX009 (ip), vehicle: Klucel (hydroxypropylcellulose) (HPC)).

Turning to `C=C1C(NC)CCC23CC24CCC2(C)C(C(C)=O)C(O)CC2(C)C4CCC13` (stereo not drawn), the T/C under setting [3] is 92 % of control and the T/C under setting [10] was 96 % of control.

`CCN(CC)C(C)CN1c2ccccc2Sc2ccccc21` (stereo not drawn): the T/C was 100 % of control under setting [4], 99 % of control under setting [5] and 100 % of control under setting [6].

Turning to `C/C(=N\NC(N)=O)C1=C(O)C(C(C)C)NC1=O` (stereo not drawn), the T/C reads like this: under setting [3], 93 % of control; under setting [10], 99 % of control; under setting [11], 92 % of control; (dose: 400.0 mg/kg/injection, schedule: Q01DX009 (ip), vehicle: saline with Tween-80) 99 % of control.

Regarding `COC(=O)c1c(C(=O)Nc2ccccc2)c(-c2ccccc2)n(NC(N)=O)c1C`, the T/C under setting [12] is 112 % of control, the T/C under setting [13] was 107 % of control and the T/C under setting [14] was 104 % of control.

Regarding `[CH3][Sn]([CH3])([N](c1ccccn1)c1ccccn1)[N](c1ccccn1)c1ccccn1`, the T/C is 111 % of control under setting [15] and 118 % of control under setting [16].

In the case of `COSc1ccccc1`, the T/C is 96 % of control (dose: 100.0 mg/kg/injection, schedule: Q01DX001 (ip), vehicle: Klucel (hydroxypropylcellulose) (HPC)); 90 % of control (dose: 200.0 mg/kg/injection, schedule: Q01DX001 (ip), vehicle: Klucel (hydroxypropylcellulose) (HPC)); 104 % of control (dose: 400.0 mg/kg/injection, schedule: Q01DX001 (ip), vehicle: Klucel (hydroxypropylcellulose) (HPC)).

As to `CC12COC(=O)CC1CCC1C2CCC2(C)C1CCC2(C)O` (stereo not drawn), the T/C was 95 % of control (dose: 100.0 mg/kg/injection, schedule: Q04DX003 (ip), vehicle: saline with Tween-80) and 104 % of control (dose: 200.0 mg/kg/injection, schedule: Q04DX003 (ip), vehicle: saline with Tween-80).

As for `COC(=O)[CH2][Sn]([CH2]C(=O)OC)([c]1ccccc1)[c]1ccccc1`, the T/C was 120 % of control (dose: 0.39 mg/kg/injection, schedule: Q01DX005 (ip), vehicle: Klucel (hydroxypropylcellulose) (HPC)) and 112 % of control (dose: 0.79 mg/kg/injection, schedule: Q01DX005 (ip), vehicle: Klucel (hydroxypropylcellulose) (HPC)).

As to `O=C(Nc1ccc(Cl)c(Cl)c1)NN1CCCCCC1`, the T/C by setting is: under setting [12], 103 % of control; under setting [13], 103 % of control; under setting [14], 101 % of control.

Turning to `Cc1cc(=O)c2ccc(Br)cc2[nH]1`, the T/C by setting is: under setting [12], 100 % of control; under setting [13], 97 % of control; under setting [14], 100 % of control.

With `Fc1cccc(Cl)c1C(Nc1nncs1)Nc1nncs1`, the T/C by setting is: (dose: 120.0 mg/kg/injection, schedule: Q01DX005 (ip), vehicle: Klucel (hydroxypropylcellulose) (HPC)) 171 % of control; (dose: 240.0 mg/kg/injection, schedule: Q01DX005 (ip), vehicle: Klucel (hydroxypropylcellulose) (HPC)) 187 % of control and 194 % of control.

As to `O=C1C2=Nc3ccccc3C(O)N2c2ccccc21` (stereo not drawn), the T/C is, setting by setting: under setting [1], 88 % of control; under setting [2], 89 % of control; under setting [3], 90 % of control and 97 % of control; under setting [10], 93 % of control; under setting [11], 94 % of control.

For `COc1ccc2c3c([nH]c2c1)[C@H](CC(C)(C)O)N1C(=O)[C@@H]2CCCN2C(=O)[C@]1(O)[C@H]3O`, the T/C is 100 % of control (dose: 6.25 mg/kg/injection, schedule: Q01DX005 (ip), vehicle: Klucel (hydroxypropylcellulose) (HPC)); 105 % of control (dose: 12.5 mg/kg/injection, schedule: Q01DX005 (ip), vehicle: Klucel (hydroxypropylcellulose) (HPC)); 108 % of control (dose: 25.0 mg/kg/injection, schedule: Q01DX005 (ip), vehicle: Klucel (hydroxypropylcellulose) (HPC)); 116 % of control under setting [15].

Regarding `CNC(=O)O/N=C(\CN=[N+]=[N-])C(C)(C)C`, the T/C (dose: 0.78 mg/kg/injection, schedule: Q01DX009 (ip), vehicle: saline with Tween-80) was 93 % of control.

As to `CC(=O)OCC1OC(n2cnc3c(Cl)nc(Cl)nc32)CC(OC(C)=O)C1OC(C)=O` (stereo not drawn), the T/C runs as follows: under setting [15], 93 % of control; under setting [16], 99 % of control; under setting [9], 91 % of control.

On to `C[CH2][Sn]1([CH2]C)[O]OC(c2ccccc2)[O]1` (stereo not drawn), for which the T/C was 155 % of control (dose: 1.56 mg/kg/injection, schedule: Q01DX009 (ip), vehicle: saline with Tween-80) and 173 % of control under setting [1].

In the case of `Cc1nn(C(N)=S)c(C)c1N=Nc1ccc(Cl)cc1Cl`, the T/C runs as follows: under setting [17], 101 % of control and 105 % of control; (dose: 600.0 mg/kg/injection, schedule: Q04DX002 (ip), vehicle: saline with Tween-80) 90 % of control.

Consider `CC(C)CCCC(C)C1CCC2C3CCC4CC5(C)C(CC4(C)C3CCC12C)C(=O)C5(Cl)Cl` (stereo not drawn), for which the T/C was 96 % of control under setting [12], 100 % of control under setting [13] and 99 % of control under setting [14].

As for `O=C1Cc2nc3ccccc3nc2CC(=O)c2ccccc21`, the T/C is 90 % of control under setting [17], 87 % of control under setting [7] and 90 % of control under setting [8].
